Experimental data published in PubChem BioAssay (NCI).
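Values below derive from 48-hour exposures of cells grown in 96-well plates, with endpoints linearly interpolated between the two concentrations bracketing the appropriate inhibition level. At the TGI there is no net growth.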

Legend:
Assay in all cases: DTP human tumour cell line panel, 48 h
RPMI-8226 leukemia = test system: RPMI-8226 leukemia
LOX IMVI melanoma = test system: LOX IMVI melanoma
NCI-H522 lung = test system: NCI-H522 lung
HOP-18 NSCLC = test system: HOP-18 NSCLC
LXFL 529 NSCLC = test system: LXFL 529 NSCLC
SF-295 CNS = test system: SF-295 CNS
KM12 colon = test system: KM12 colon
NCI-H460 lung = test system: NCI-H460 lung
OVCAR-8 ovarian = test system: OVCAR-8 ovarian
SK-MEL-2 melanoma = test system: SK-MEL-2 melanoma
COLO 205 colon = test system: COLO 205 colon
A549 NSCLC = test system: A549 NSCLC
UACC-62 melanoma = test system: UACC-62 melanoma
SK-MEL-28 melanoma = test system: SK-MEL-28 melanoma
DMS 273 small cell lung = test system: DMS 273 small cell lung
DMS 114 small cell lung = test system: DMS 114 small cell lung
KM20L2 colon = test system: KM20L2 colon
DLD-1 colon = test system: DLD-1 colon
IGROV1 ovarian = test system: IGROV1 ovarian
SF-268 CNS = test system: SF-268 CNS
NCI-H226 lung = test system: NCI-H226 lung
TK-10 renal = test system: TK-10 renal
RXF 393 renal = test system: RXF 393 renal
SF-539 CNS = test system: SF-539 CNS
CCRF-CEM leukemia = test system: CCRF-CEM leukemia
K-562 leukemia = test system: K-562 leukemia
CAKI-1 renal = test system: CAKI-1 renal
SNB-19 CNS = test system: SNB-19 CNS
M19-MEL melanoma = test system: M19-MEL melanoma
HCT-116 colon = test system: HCT-116 colon
EKVX NSCLC = test system: EKVX NSCLC
HOP-92 NSCLC = test system: HOP-92 NSCLC
HCT-15 colon = test system: HCT-15 colon
SNB-78 CNS = test system: SNB-78 CNS
M14 melanoma = test system: M14 melanoma
UACC-257 melanoma = test system: UACC-257 melanoma
SNB-75 CNS = test system: SNB-75 CNS
NCI-H23 lung = test system: NCI-H23 lung
MALME-3M melanoma = test system: MALME-3M melanoma
SR leukemia = test system: SR leukemia
MOLT-4 leukemia = test system: MOLT-4 leukemia
SK-OV-3 ovarian = test system: SK-OV-3 ovarian
HOP-62 NSCLC = test system: HOP-62 NSCLC
ACHN renal = test system: ACHN renal
SK-MEL-5 melanoma = test system: SK-MEL-5 melanoma
OVCAR-5 ovarian = test system: OVCAR-5 ovarian
HT29 colon = test system: HT29 colon
HL-60(TB) leukemia = test system: HL-60(TB) leukemia
UO-31 renal = test system: UO-31 renal
786-0 renal = test system: 786-0 renal
U251 CNS = test system: U251 CNS
OVCAR-3 ovarian = test system: OVCAR-3 ovarian
A498 renal = test system: A498 renal
SN12C renal = test system: SN12C renal
SW-620 colon = test system: SW-620 colon
HCC-2998 colon = test system: HCC-2998 colon
OVCAR-4 ovarian = test system: OVCAR-4 ovarian

Measured: TGI

CC(=O)NC(CCCN(Cc1ccccc1)C(=O)NCCCl)C(=O)NCc1ccccc1 (stereo not given)
> 100 µM: all assays above

COc1ccc(/C=C/C(=O)c2cc(C(=O)O)c(OC)cc2OC)cc1OC
not listed: SK-MEL-2 melanoma | TK-10 renal | RXF 393 renal | CAKI-1 renal | MALME-3M melanoma | SK-OV-3 ovarian | UO-31 renal | OVCAR-3 ovarian | HCC-2998 colon
> 100 µM: all other assays above
